Data published in the supplement of paper PMC11061612.

Legend:
Assay in all cases: Bliss excess, mean over the matrix (fraction); higher = more synergy
[1] = tested on: LAMA-84 (Chronic Myelogenous Leukemia)
Method in brief: (§1)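 After 24 hours at 37°C and 5% CO2 in 1536-well plates, cells in DMEM/F12 or RPMI plus 10% FBS received two-drug dose matrices for 72 hours. Viability came from CellTiter-Glo 2.0 luminescence and was scaled as inhibition, anchored at 0 by vehicle wells and at 1 by blank wells. Combination Emax is taken as the second-highest inhibition in the matrix, and Bliss excess as the observed combination effect less EA + EB − EA·EB, with EA and EB the single-agent effects.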

[2] = tested on: OCI-AML5 (Acute Myeloid Leukemia)
Method in brief: as §1

ES-2 (Ovarian Carcinoma) = tested on: ES-2 (Ovarian Carcinoma)
Method in brief: as §1

[3] = tested on: PANC-02-03 (Pancreatic Carcinoma)
Method in brief: as §1

[4] = tested on: RPMI-8866 (Chronic Myelogenous Leukemia)
Method in brief: as §1

[5] = tested on: AsPC-1 (Pancreatic Carcinoma)
Method in brief: as §1

[6] = tested on: CML-T1 (Chronic Myelogenous Leukemia)
Method in brief: as §1

[7] = tested on: NCI-H1155 (Non-Small Cell Lung Carcinoma)
Method in brief: as §1

[8] = tested on: NCI-H1623 (Lung Adenocarcinoma)
Method in brief: as §1

[9] = tested on: OV-90 (Ovarian Carcinoma)
Method in brief: as §1

[10] = tested on: FLO-1 (Esophageal Adenocarcinoma)
Method in brief: as §1

[11] = tested on: JHH-1 (Hepatocellular Carcinoma)
Method in brief: as §1

[12] = tested on: HSC-3 (Oral Cavity Carcinoma)
Method in brief: as §1

786-0 (Kidney Carcinoma) = tested on: 786-0 (Kidney Carcinoma)
Method in brief: as §1

[13] = tested on: EB-3 (Burkitt's Lymphoma)
Method in brief: as §1

[14] = tested on: SW684 (Other Solid Carcinomas)
Method in brief: as §1

[15] = tested on: Calu-6 (Non-Small Cell Lung Carcinoma)
Method in brief: as §1

[16] = tested on: NKM-1 (Acute Myeloid Leukemia)
Method in brief: as §1

HuO-3N1 (Osteosarcoma) = tested on: HuO-3N1 (Osteosarcoma)
Method in brief: as §1

[17] = tested on: SNU-175 (Colorectal Carcinoma)
Method in brief: as §1

Row | SMILES | Bliss excess [1] | Bliss excess [2] | Bliss excess (ES-2 (Ovarian Carcinoma)) | Bliss excess [3] | Bliss excess [4] | Bliss excess [5] | Bliss excess [6] | Bliss excess [7] | Bliss excess [8] | Bliss excess [9] | Bliss excess [10] | Bliss excess [11] | Bliss excess [12] | Bliss excess (786-0 (Kidney Carcinoma)) | Bliss excess [13] | Bliss excess [14] | Bliss excess [15] | Bliss excess [16] | Bliss excess (HuO-3N1 (Osteosarcoma)) | Bliss excess [17]
1 | C[C@@H]1COCCN1c1cc(C2([S@](C)(=N)=O)CC2)nc(-c2ccnc3[nH]ccc23)n1 [AZD6738] + O=C(c1cc(Cc2n[nH]c(=O)c3ccccc23)ccc1F)N1CCN(C(=O)C2CC2)CC1 [Olaparib] (first compound max 10 µM, 7x7, partner max 10 µM) | 0.0233 | -0.0071 | -0.0136 | 0.0287 | -0.0143 | -0.027 | -0.0182 | 0.0374 | -0.0325 | 0.0053 | -0.0348 | -0.0206 | 0.0043 | 0.0473 | -0.0955 | -0.0144 | -0.0679 | -0.0366 | -0.0071 | 0.0311
2 | NC1(C(=O)N[C@@H](CCO)c2ccc(Cl)cc2)CCN(c2ncnc3[nH]ccc23)CC1 [Capivasertib] + C[C@@H]1COCCN1C2=NC(=NC(=C2)C3(CC3)[S@](=N)(=O)C)C4=C5C=CNC5=NC=C4 [AZD6738] (first compound max 10 µM, 7x7, partner max 10 µM) | 0.0117 | -0.017 | -0.0716 | -0.004 | -0.0323 | -0.0359 | -0.0774 | -0.0362 | -0.0522 | -0.0159 | -0.0933 | -0.0294 | -0.0346 | -0.0708 | -0.0579 | -0.0465 | -0.0777 | -0.0479 | -0.11 | -0.0099
3 | CN(CCO)CC[C@H](CSc1ccccc1)Nc1ccc(S(=O)(=O)NC(=O)c2ccc(N3CCC([C@@H](O)c4ccccc4-c4ccc(Cl)cc4)CC3)cc2)cc1S(=O)(=O)C(F)(F)F [AZD4320] + CN(C)CCCOc1ccc(-c2ccc3ncc4c(c3c2)n(C2CCOCC2)c(=O)n4C)cn1 [AZD0156] (first compound max 1 µM, 7x7, partner max 1 µM) | -0.0089 | -0.0015 | -0.0259 | -0.0553 | -0.0756 | -0.0506 | 0.013 | -0.0105 | -0.071 | -0.0141 | 0.0007 | -0.0513 | -0.0532 | -0.0503 | -0.0389 | -0.0641 | -0.0156 | -0.0871 | -0.0021 | -0.0219
4 | CN(CCO)CC[C@H](CSc1ccccc1)Nc1ccc(S(=O)(=O)NC(=O)c2ccc(N3CCC([C@@H](O)c4ccccc4-c4ccc(Cl)cc4)CC3)cc2)cc1S(=O)(=O)C(F)(F)F [AZD4320] + C[C@@H]1COCCN1C2=NC(=NC(=C2)C3(CC3)[S@](=N)(=O)C)C4=C5C=CNC5=NC=C4 [AZD6738] (first compound max 1 µM, 7x7, partner max 10 µM) | -0.0093 | 0.0284 | -0.0061 | -0.0584 | 0.0527 | -0.109 | 0.0149 | 0.0351 | -0.0101 | -0.0354 | -0.0574 | -0.0234 | -0.054 | -0.0263 | -0.0287 | -0.0548 | -0.0258 | 0.0067 | 0.0154 | 0.0023
5 | Cc1nc(Nc2ncc(C(=O)Nc3c(C)cccc3Cl)s2)cc(N2CCN(CCO)CC2)n1 [Dasatinib] + CC(=O)Nc1cccc(-n2c(=O)n(C3CC3)c(=O)c3c(Nc4ccc(I)cc4F)n(C)c(=O)c(C)c32)c1 [Trametinib] (first compound max 2 µM, 7x7, partner max 1 µM) | 0.0037 | -0.0515 | 0.0522 | 0.0762 | 0.073 | 0.0506 | -0.0296 | -0.0132 | -0.0775 | -0.0067 | 0.122 | 0.0492 | -0.0444 | -0.0592 | -0.0156 | 0.0004 | 0.179 | -0.0196 | -0.159 | -0.0992
6 | COc1nnc2ccc(N3CCC(c4ccc(OCCN5CCN(C)C(=O)[C@H]5C)cc4)CC3)nn12 [AZD5153] + C=CCn1c(=O)c2cnc(Nc3ccc(N4CCN(C)CC4)cc3)nc2n1-c1cccc(C(C)(C)O)n1 [AZD1775] (first compound max 1 µM, partner max 1 µM) | -0.0311 | -0.0106 | -0.0435 | -0.0823 | -0.0864 | 0.0167 | -0.116 | 0.0523 | -0.0101 | -0.0367 | 0.0001 | 0.0173 | -0.0396 | -0.0163 | -0.114 | -0.054 | -0.0511 | -0.124 | -0.0584 | -0.0647
7 | Cc1cc2ncnn2cc1Nc1ncc2c(n1)n(C1CCOCC1)c(=O)n2C [AZD7648] + O=C(c1cc(Cc2n[nH]c(=O)c3ccccc23)ccc1F)N1CCN(C(=O)C2CC2)CC1 [Olaparib] (first compound max 10 µM, 7x7, partner max 10 µM) | -0.0044 | 0.0077 | -0.0354 | -0.0411 | 0.0298 | -0.0567 | -0.0483 | -0.0235 | -0.0486 | -0.0419 | -0.0259 | -0.0621 | -0.0102 | -0.0162 | -0.0401 | -0.0452 | -0.0391 | 0.0104 | -0.031 | -0.025
8 | CS(=O)(=O)CCNCc1ccc(-c2ccc3ncnc(Nc4ccc(OCc5cccc(F)c5)c(Cl)c4)c3c2)o1 [Lapatinib] + C[C@@H](Oc1cc(-c2cnn(C3CCNCC3)c2)cnc1N)c1c(Cl)ccc(F)c1Cl [Crizotinib] (first compound max 10 µM, 7x7, partner max 10 µM) | 0.001 | -0.003 | -0.0565 | -0.0617 | 0.005 | -0.031 | -0.106 | -0.0185 | 0.0555 | -0.0019 | -0.0535 | -0.0906 | -0.0395 | -0.0666 | -0.0572 | -0.0389 | 0.0122 | -0.0604 | -0.0423 | -0.0001
9 | COc1nnc2ccc(N3CCC(c4ccc(OCCN5CCN(C)C(=O)[C@H]5C)cc4)CC3)nn12 [AZD5153] + CCN(CCO)CCCOc1ccc2c(Nc3cc(CC(=O)Nc4cccc(F)c4)[nH]n3)ncnc2c1 [AZD2811] (first compound max 1 µM, 7x7, partner max 1 µM) | 0.0006 | -0.0282 | 0.0089 | -0.0809 | 0.0254 | -0.0427 | -0.0571 | 0.0177 | -0.0117 | -0.0226 | -0.0165 | -0.0292 | -0.0509 | -0.0274 | -0.0701 | -0.0767 | -0.0563 | -0.0201 | -0.0705 | -0.112
10 | CC(=O)Nc1cccc(-n2c(=O)n(C3CC3)c(=O)c3c(Nc4ccc(I)cc4F)n(C)c(=O)c(C)c32)c1 [Trametinib] + Cc1nc(-c2cn3c(n2)-c2ccc(-c4cnn(C(C)(C)C(N)=O)c4)cc2OCC3)n(C(C)C)n1 [Taselisib] (first compound max 1 µM, 7x7, partner max 10 µM) | 0.0537 | 0.194 | 0.0915 | 0.179 | 0.118 | 0.0654 | 0.0426 | 0.0426 | 0.144 | 0.0922 | 0.047 | 0.0177 | 0.15 | -0.0229 | 0.0489 | 0.161 | 0.168 | 0.255 | 0.0402 | 0.0779
11 | Cc1cc2ncnn2cc1Nc1ncc2c(n1)n(C1CCOCC1)c(=O)n2C [AZD7648] + C=CCn1c(=O)c2cnc(Nc3ccc(N4CCN(C)CC4)cc3)nc2n1-c1cccc(C(C)(C)O)n1 [AZD1775] (first compound max 10 µM, partner max 1 µM) | 0.046 | 0.0086 | 0.0248 | 0.0306 | -0.0616 | 0.0558 | 0.0112 | 0.033 | 0.0376 | -0.0163 | -0.023 | 0.001 | -0.0488 | 0.0502 | -0.102 | -0.017 | -0.0282 | -0.0556 | -0.0205 | -0.0043
12 | Cn1cnc2c(F)c(Nc3ccc(Br)cc3Cl)c(C(=O)NOCCO)cc21 [Selumetinib] + C[C@@H]1COCCN1C2=NC(=NC(=C2)C3(CC3)[S@](=N)(=O)C)C4=C5C=CNC5=NC=C4 [AZD6738] (first compound max 10 µM, 7x7, partner max 10 µM) | 0.0012 | 0.0024 | 0.0006 | 0.04 | -0.0129 | 0.0716 | -0.0631 | -0.0028 | 0.0028 | 0.0049 | -0.0137 | 0.0427 | 0.0049 | -0.0735 | -0.069 | -0.071 | -0.032 | -0.0748 | -0.0994 | 0.0644
